Values of other authors in PMC11165342 (Asian Journal of Pharmaceutical Sciences, 2024).

pKa: 3.5–4.5
Structure (SMILES): CC(C(=O)O)c1ccc(-c2ccccc2)c(F)c1 (stereo not shown) [FB, Flurbiprofen]
